Laboratory results from paper PMC7876453, “Targeting Indoleamine 2,3-Dioxygenase in Cancer Models Using the Novel Small Molecule Inhibitor NTRC 3883-0” (Frontiers in Immunology, 2021).
Like-named read-outs stand apart in the source and are kept apart here.

Tests used:
SW48 (hTDO) = target: T1, SW48 (hTDO) (Homo sapiens, UniProt P48775); assay: cell-based assay, Trp-catabolizing activity in SW48 cells
T1 construct: host or cells: SW48 cells

CYP2D6 = target: T2, CYP2D6 (Homo sapiens, UniProt P10635); assay: CYP2D6 inhibition (P450-Glo); format: in vitro ADME; conditions: 10 µM
T2 construct: purchased Promega V9890
Method: Full-length recombinant human and mouse IDO1 were expressed in Escherichia coli with a hexahistidine tag at the N-terminus, and purified by affinity chromatography to > 95% purity, as described ([8]). Human and mouse TDO containing a C-terminal hexahistidine tag were analogously expressed and purified to > 95% purity ([8]). The inhibitory activity of compounds was determined with the NFK GreenScreen assay technology under the conditions as described ([8]), except for the reaction buffer for IDO1, which was replaced by 50 mM NaH2PO4, pH 7.0, supplemented with 0.01% Tween-20 and 1% glycerol. Inhibition of the CYP3A4 and CYP2D6 enzymes was determined with the P450-Glo™ Screening System with Luciferin-IPA (Promega, #V9920 and V9890). For determination of IC50 values, the effect of inhibitors was determined in 10-point duplicate dose-response curves. Graphs were fitted to a four-parameter logistics equation in XLfit (ID Business Solutions, Ltd., Guildford, UK) from which IC50 values were calculated.

[1] = system: CD8-positive T cells co-cultured with HEK-hIDO1 cells; assay: co-culture assay of HEK-hIDO1 cells with PBMCs, CFSE proliferation; format: cell-based, human; conditions: 7.5 µM Trp; 10 µM NTRC 3883-0, 1 µM epacadostat; 5 days
[2] = system: CT26 cells implanted subcutaneously into female BALB/c mice; assay: CT26 mouse model, second study (Charles River); format: in vivo
Method: For the second study, performed at Charles River Laboratories, 3 × 10^5 CT26 cells were implanted subcutaneously into female BALB/c mice on day 0. […] Tumor growth was monitored using caliper measurement 3 times weekly. A tumor volume of 2000 mm^3 was used as the endpoint of the experiment for the individual animals. Tumors were sampled 2 h post last dose.
Tissues were homogenized in PBS at a ratio of 1 mg per 10 μl using micro pellet pestles mounted on a Micro-Tube Homogenizer System (Thomas Scientific). After centrifugation, proteins were removed from the homogenized tissue supernatants and plasma samples by precipitation with methanol. The concentrations of inhibitor, Trp and Kyn were determined by LC-MS/MS.

[3] = in vivo pharmacokinetics, monkey; conditions: cynomolgus monkey, plasma; for clearance / Vd: intravenous; for Vd: read-out: Vss
Method: (§1) Pharmacokinetic properties of NTRC 3883-0 were determined in plasma following single oral (p.o.) and i.v. administration to male CD-1 mice (n = 6 per treatment group with three mice sampled per time point), Wistar rats (n = 3), cynomolgus monkey (n = 1) and Beagle dogs (n = 3). Formulations were prepared in DMSO, Kolliphor® EL, 5% D-mannitol in Elix water at a volume ratio of 1:1:8 for i.v. administration, and in 0.5% gelatin, 5% D-mannitol in Elix water for p.o. administration. Plasma samples were collected at eight to eleven time points up to 24 h after administration. Pharmacokinetic properties and required dosing in humans were predicted by allometric scaling by Karin Jorga Life Science Consulting (Basel, Switzerland) ( Figure S2 and Table S2 ).

[4] = in vivo pharmacokinetics, dog; parameters: species or system Beagle dogs; conditions: Beagle, plasma; for clearance / Vd: intravenous; for Vd: read-out: Vss
Method: as §1

[5] = plasma protein binding, mouse; format: in vitro ADME
Method: (§2) Supplement DataSheet_1.docx, table 2: Table S2. Pharmacokinetic parameters of NTRC 3883-0 observed in mouse, rat, monkey and dog, and predicted for humans using allometric scaling. Data in bold are measured, while data in italics are calculated or predicted (for humans). The clearance (Cl) and volume of distribution at steady state (Vss | column: Mouse

[6] = plasma protein binding, rat; format: in vitro ADME
Method: as §2, with “Rat” for “Mouse”

[7] = plasma protein binding, dog; format: in vitro ADME
Method: as §2, with “Dog” for “Mouse”

[8] = plasma protein binding, human; format: in vitro ADME; conditions: column Human (predicted)
Method: as §2, with “Human (predicted)” for “Mouse”

[9] = system: unstimulated adherent cell samples isolated from ascites of ovarian cancer patients; assay: Trp-catabolizing activity in unstimulated ascites cell samples; format: cell-based, human; conditions: for IC50: Homo sapiens
Method: Ascites was collected from patients with a primary diagnosis of advanced epithelial ovarian cancer during paracentesis for diagnostics or symptom relieve, or during primary debulking surgery. Ascites was filtered and cells were collected by centrifugation as described ([23]). To enrich for tumor cells, ascites cell samples were allowed to adhere overnight to tissue culture plastic. The cell samples were then cultured for 2–3 weeks in advanced RPMI medium (ThermoFisher), supplemented with 10% FBS, 1% glutamax and 1% P/S, with 2 or 3 times passaging of the cells. qPCR analyses of the MUC16, HE4, IDO1, and TDO2 genes were performed for all samples as described above. Five samples which could be cultured over multiple passages were analyzed for cell surface expression of mucin-16 and EpCAM by flow cytometry using FITC-conjugated anti-mucin-16 (AssayPro, #32189-05141) and APC-conjugated anti-EpCAM (Miltenyi, #130-111-117, RRID: AB_2657496) to assure that the cell cultures consisted of malignant cells. IDO1 mRNA and protein levels in these samples were analyzed as described above after incubation with or without 200 ng/ml IFNγ for 24 h. The collection of ascites and the research described was conducted with approval of the medical ethical committee of the Radboud university medical center and informed written consent from each subject.

T1 sequence (P48775 whole entry): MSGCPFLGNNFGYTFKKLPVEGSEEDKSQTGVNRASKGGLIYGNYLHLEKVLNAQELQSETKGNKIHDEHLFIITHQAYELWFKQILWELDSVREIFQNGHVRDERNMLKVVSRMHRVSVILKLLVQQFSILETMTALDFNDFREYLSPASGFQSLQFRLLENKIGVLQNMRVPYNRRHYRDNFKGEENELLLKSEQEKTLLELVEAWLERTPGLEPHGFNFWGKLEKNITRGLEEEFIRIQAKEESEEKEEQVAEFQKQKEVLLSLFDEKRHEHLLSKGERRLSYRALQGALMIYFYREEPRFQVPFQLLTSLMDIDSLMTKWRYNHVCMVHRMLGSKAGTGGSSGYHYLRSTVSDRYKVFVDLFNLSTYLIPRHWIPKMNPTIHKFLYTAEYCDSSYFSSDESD
T2 sequence (P10635 whole entry): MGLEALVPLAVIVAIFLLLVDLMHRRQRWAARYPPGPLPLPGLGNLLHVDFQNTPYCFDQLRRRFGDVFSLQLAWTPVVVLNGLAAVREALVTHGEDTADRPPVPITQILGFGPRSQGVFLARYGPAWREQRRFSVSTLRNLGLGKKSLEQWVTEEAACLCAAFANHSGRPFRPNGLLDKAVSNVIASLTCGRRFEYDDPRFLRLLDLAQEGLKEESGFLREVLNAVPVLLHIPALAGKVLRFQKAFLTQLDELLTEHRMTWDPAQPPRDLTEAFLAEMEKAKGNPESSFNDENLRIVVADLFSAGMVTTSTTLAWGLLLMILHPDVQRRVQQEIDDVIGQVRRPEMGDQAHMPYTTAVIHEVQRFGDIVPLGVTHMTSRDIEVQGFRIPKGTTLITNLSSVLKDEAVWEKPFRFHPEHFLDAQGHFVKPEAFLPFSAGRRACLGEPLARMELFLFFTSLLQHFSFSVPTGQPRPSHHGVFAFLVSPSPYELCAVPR

SMILES: O=C1CN(C(=O)c2c(F)cccc2F)[C@H](c2cccc(Br)c2)N1O [NTRC 3883-0]
- inhibition at 31.6 µM (SW48 (hTDO); SW48, @ 31,600 nM): < 20%
- effect on Trp-catabolizing activity in SW48 (in words) (SW48 (hTDO); constitutively expresses TDO): no effect
- inhibition of CYP2D6 activity (CYP2D6): did not inhibit
- effect on IDO1-mediated inhibition of T cell proliferation (in words) [1]: relieved the inhibitory effect
- tumor growth ([2]; 100 mg/kg p.o. b.i.d. from day 8): no inhibition of tumor growth
- Kyn levels in the tumor ([2]; LC-MS/MS, 2 h post last dose, 100 mg/kg p.o. b.i.d.): considerable reduction of Kyn levels
- half-life [3]: 2.4 h
- clearance [3]: 37 mL/min/kg
- clearance ([3]; monkey, body weight 3.0 kg): 111 mL/min
- Vd ([3]; monkey, body weight 3.0 kg): 6.74 L
- Vd [3]: 2.25 L/kg
- bioavailability ([3]; po, monkey, p.o. versus i.v., read-out: Bioavailability (F)): 49%
- half-life [4]: 2.8 h
- clearance [4]: 28.6 mL/min/kg
- clearance ([4]; body weight 10 kg): 286 mL/min
- Vd ([4]; body weight 10 kg): 13.6 L
- Vd [4]: 1.36 L/kg
- bioavailability ([4]; po, p.o. versus i.v., read-out: Bioavailability (F)): 32%
- fraction unbound [5]: 0.46
- fraction unbound [6]: 0.15
- fraction unbound [7]: 0.21
- fraction unbound [8]: 0.26
- inhibition of basal Trp-catabolizing activity (in words) [9]: no or only minimal inhibition
- IC50 ([9]; mean of samples, read-out: IC50 Mean): > 31.6 µM
- IC50 ([9]; read-out: IC50 ASC 010): > 31.6 µM
- IC50 ([9]; read-out: IC50 ASC 013): > 31.6 µM
- IC50 ([9]; read-out: IC50 ASC 031): > 31.6 µM
- IC50 ([9]; read-out: IC50 ASC 041): > 31.6 µM
